“And” between values parts separate entries of the source, which are not always exact repeats. Equal values may be shown once. Read-outs that look alike come from different tables or passages of the source. Each block holds one compound with its values, some of them ahead of it.
Experiments:
[1] = molecular target: T1, PaMTIP (Pseudomonas aeruginosa (strain ATCC 15692 / DSM 22644 / CIP 104116 / JCM 14847 / LMG 12228 / 1C / PRS 101 / PAO1), UniProt Q9HZK1); assay: biochemical
Protocol: Assays for slow-onset inhibitors were carried out by adding 1 nM PaMTIP into reaction mixtures at 25° C. containing 100 mM Hepes, pH 7.4, 100 mM phosphate, pH 7.4, 2 mM MTI, 5 mM DTT, 0.5 unit of xanthine oxidase and variable inhibitor concentration. Inhibitors were present at >10 times the enzyme concentration, required to simplify data analysis (24). Assays for MTA inhibition used 200 μM MTI. Controls having no enzyme and no inhibitor were included in all of the inhibition assays. Inhibition constants were obtained by fitting initial rates with variable inhibitor concentrations to equation (1) using GraFit 5 (Erithacus Software):
[formula] where vi is the initial rate in the presence of inhibitor, vo is the initial rate in the absence of inhibitor, Km is the Michaelis constant for MTI, [S] and [I] are MTI and inhibitor concentrations, respectively, and Ki is the inhibition constant. Slow-onset inhibitors display a second phase of tighter binding after reaching a thermodynamic equilibrium with the enzyme. The equilibrium constant for the second binding phase is indicated as Ki*. This constant was obtained by fitting initial final rates and inhibitor concentrations to equation (1) using GraFit 5 (22).

[2] = molecular target: T2, PfPNP (Plasmodium falciparum (isolate 3D7), UniProt Q8I3X4); conditions: read-out: dissociation constants; cited from earlier work
[3] = molecular target: PfADA (Plasmodium falciparum (isolate 3D7), UniProt Q8IJA9); conditions: PfADA deamination; cited from earlier work
[4] = molecular target: T1, PaMTIP; format: biochemical; conditions: for fold decreases of Kcat/Km in comparison with those of MTI / kcat/Km: PaMTIP; for Km / kcat: PaMTIP phosphorolysis, 100 mM phosphate, pH 7.4, 25° C.
Protocol: Product formation was monitored by conversion of hypoxanthine to uric acid by xanthine oxidase (22). The extinction coefficient of this assay was 12.9 mM^−1cm^−1 at 293 nm. Enzyme activity with adenosine or MTA as substrates was determined by conversion of adenine to 2,8-dihydroxyadenine using the same coupling enzyme (23). Its extinction coefficient at 293 nm was 15.2 mM^−1cm^−1. Reactions were carried out at 25° C. in 1 cm cuvettes, 1 mL volumes of 100 mM Hepes, pH 7.4, 100 mM phosphate, pH 7.4, variable concentrations of nucleoside substrate, 0.5 unit of xanthine oxidase, 5 mM DTT, and appropriate amounts of purified MTIP. Reactions were initiated by addition of enzyme and the initial rates were monitored with a CARY 300 UV-Visable spectrophotometer. Control rates (no PaMTIP) were subtracted from initial rates. Km and kcat values for PaMTIP were obtained by fitting initial rates to the Michaelis-Menten equation using GraFit 5 (Erithacus Software).

[5] = molecular target: T2, PfPNP; conditions: cited from earlier work
[6] = initial binding phase, 2 mM MTI, 25° C., pH 7.4, values ± S.E., read-out: Ki
[7] = second tighter binding phase of slow-onset inhibition, values ± S.E., read-out: Ki*

SMILES: CSC[C@@]1(O)CN(Cc2c[nH]c3c(=O)[nH]cnc23)C[C@@H]1O [4′-HO-MT-DADMe-ImmH, (3S,4R)-1-[(9-deazahypoxanthin-9-yl)methyl]-3,4-dihydroxy-4-methylthiomethylpyrrolidine]
inhibitor potency in words [1]: nanomolar inhibitor

SMILES: CSC[C@H]1CN(Cc2c[nH]c3c(=O)[nH]cnc23)C[C@@H]1O [MT-DADMe-ImmH, (3R,4S)-1-[(9-deazahypoxanthin-9-yl)methyl]-3-hydroxy-4-(methylthiomethyl)pyrrolidine]
Ki ([1]; Ki*, second tighter binding phase of slow-onset inhibition, values ± S.E.): 0.34 ± 0.02 nM
Ki [1, 6]: 0.8 ± 0.1 nM
Ki [2]: 0.9 nM

Ki [1, 7]: 0.096 nM
SMILES: CSCC(CO)NCc1c[nH]c2c(=O)[nH]cnc12 (stereo not shown) [MT-SerMe-ImmH]

SMILES: CSCC(CO)(CO)NCc1c[nH]c2c(=O)[nH]cnc12 [MT-TrisMe-ImmH, 7-((1,3-dihydroxy-2-(methylthiomethyl)propan-2-ylamino)methyl)-3H-pyrrolo[3,2-d]pyrimidin-4(5H)-one]
Ki ([1]; Ki): 19 nM

SMILES: O=c1[nH]cnc2c([C@@H]3N[C@H](CSc4ccccc4)[C@@H](O)[C@H]3O)c[nH]c12 [PhT-ImmH]
mode of inhibition [1]: slow-onset, tight-binding inhibition
Ki [1, 6]: 0.66 ± 0.09 nM
Ki [1, 7]: 0.035 nM

SMILES: CCCSC[C@H]1CN(Cc2c[nH]c3c(=O)[nH]cnc23)C[C@@H]1O [PrT-DADMe-ImmH]
fold tighter binding / enhanced potency relative to MT-DADMe-ImmH [1]: 4 fold

SMILES: Nc1ncnc2c1ncn2[C@@H]1O[C@H](CO)[C@@H](O)[C@H]1O [adenosine]
kcat/Km [3]: 62000 M⁻¹ s⁻¹
fold decreases of Kcat/Km in comparison with those of MTI [4]: 750 fold
kcat/Km [4]: 2400 M⁻¹ s⁻¹
Km [4]: 23 ± 1 µM
kcat [4]: 0.0549 s⁻¹ and 0.0549 ± 0.0005 s⁻¹
kcat/Km ([4]; Table 2): 2.4 ± 0.1 × 10^3 M^−1s^−1

SMILES: OC[C@H]1O[C@@H](n2cnc3c(O)ncnc32)[C@H](O)[C@@H]1O [inosine]
fold decreases of Kcat/Km in comparison with those of MTI [4]: 300 fold
kcat/Km [4]: 6300 M⁻¹ s⁻¹
Km [4]: 90 ± 20 µM
kcat [4]: 0.57 s⁻¹ and 0.57 ± 0.04 s⁻¹
kcat/Km ([4]; Table 2): 6 ± 1 × 10^3 M^−1s^−1
kcat/Km [5]: 360000 M⁻¹ s⁻¹

— US9290501B2, “Methods, assays and compounds for treating bacterial infections by inhibiting methylthioinosine phosphorylase” (Albert Einstein College of Medicine, Inc., priority 2010, dated 2016)
